These results are taken from paper PMC2893943 (Nanoscale Research Letters, 2010).

Data set [1] has as its system bone growth. To be noted: 7-day study; cited from earlier work.
Data set [2] concerns thymus. To be noted: 7-day study, cited from earlier work.
Data set [3] relates to adrenal. The experiment in a line: six-day repeat dose side effect study: adrenal involution. To be noted: at the ED50 dose (30 μg fluticasone, 100 μg ciclesonide), IT once daily, 6 days. It counts as in vivo, Sprague–Dawley rats.
Data set [4] relates to thymus. As to the kind of experiment: six-day repeat dose side effect study: thymus involution. The class given is in vivo, Sprague–Dawley rats. To be noted: at the ED50 dose, IT once daily, 6 days.
Data set [5] has as its system plasma corticosterone (HPA axis suppression). To be noted: fluticasone 0.1 mg/kg; ciclesonide 0.01 to 0.1 mg/kg/day; 28-day; cited from earlier work.
Data set [6] in a line: particle size distribution before and after wet milling. It counts as physicochemical. To be noted: for particle size D50 of the bulk material: before micronization; for particle size D50 after micronization: nanosuspension, wet milling.
For data set [7], the system named is antigen-induced airway inflammation (eosinophils in BALF). To be noted: cited from earlier work; for ED50, antigen-induced influx of eosinophils in airway BALF and lung tissue: IT-administered; for ED50 for the inhibition of eosinophil infiltration into BALF: as quoted with the 7-day side effect study.
For data set [8] the following is noted: cited from earlier work.
In data set [9] the test system is adrenal. The settings on record: 7-day study, cited from earlier work.
For data set [10], the system named is LPS-induced inflammation model in rats. The class given is in vivo, Sprague–Dawley rats. To be noted: for ED50 based on neutrophil infiltration and cytokine production data: IT instillation of nanosuspension; for ED50 based on neutrophil infiltration and cytokine production data / EDmax / dose of maximum effect (EDmax): rat LPS model; for ED50 in the LPS assay: IT nanosuspension prior to LPS challenge, inhibition of neutrophil infiltration or TNFα production in BALF; for EDmax / dose of maximum effect (EDmax): IT nanosuspension.

Data set [11] in a line: six-day repeat dose side effect study: plasma drug exposure by LC/MS/MS. It counts as in vivo, Sprague–Dawley rats. To be noted: 2 h post the last dose.
In data set [12] the test system is plasma corticosterone (HPA axis suppression). As to the kind of experiment: six-day repeat dose side effect study: plasma corticosterone level. It counts as in vivo, Sprague–Dawley rats. The settings on record: ED50 doses, 30 μg fluticasone, 2 h following the last dose.
The conditions of data set [13]: background statement, no reference given; cited from earlier work.
Where [14] appears, read: IT administration, on the basis of dose.

For `CC(C)C(=O)OCC(=O)[C@@]12O[C@H](C3CCCCC3)O[C@@H]1C[C@H]1[C@@H]3CCC4=CC(=O)C=C[C@]4(C)[C@H]3[C@@H](O)C[C@@]12C` [ciclesonide], the “fold less potent than fluticasone at decreasing bone growth” value in data set [1] is 22. In addition, in [2], the “fold less potent than fluticasone at inducing thymus involution” value is “sixfold”. This compound also gave an average adrenal involution in data set [3] of 7.6 ± 5.3%. This compound returned an average thymus involution in data set [4] of 41.0 ± 4.3%. Besides, the “effect on plasma corticosterone levels” value in data set [5] was “did not change corticosterone levels”. Also, in [6], the “particle size D50 of the bulk material” value is given as 56 μm and the “particle size D50 after micronization” value is listed as 0.22 μm. In data set [7], the “ED50, antigen-induced influx of eosinophils in airway BALF and lung tissue” value is given as 0.49 mg/kg; the “ED50 for the inhibition of eosinophil infiltration into BALF” value is 0.75 mg/kg. In [7] (antigen-induced airway eosinophilia and Sephadex-induced lung edema), the “fold less potent than fluticasone in terms of ED50” value is 7–9. The “ED50, inhibition of accumulation of eosinophils in BALF” value in data set [7] (separate study, same preclinical model) is 0.5 mg/kg. Moreover, in data set [8], the plasma protein binding is on record as above 99%. Besides, the “fold less potent than fluticasone at inducing adrenal involution” value in data set [9] is recorded as 44. Further, in data set [10] (100 μg/30 μg), the “fold less potent than fluticasone (ratio of ED50)” value was “threefold”. In addition, in data set [10], the “ED50 based on neutrophil infiltration and cytokine production data” value worked out at 0.1 mg; the “ED50 in the LPS assay” value stood at 100 µg; the EDmax turned out to be 0.3 mg; the “dose of maximum effect (EDmax)” value was 300 µg.

With `C[C@]12C=CC(=O)C=C1CC[C@@H]1[C@@H]2[C@@H](O)C[C@@]2(C)[C@H]1C[C@H]1O[C@@H](C3CCCCC3)O[C@]12C(=O)CO` [des-CIC, desisobutyryl-ciclesonide], the “ratio of systemic exposure, des-CIC versus fluticasone at ED50 doses” value in [11] is recorded as “greater than sixfold”. Further, the plasma protein binding in data set [8] is given as above 99%.

In the case of `CCC(=O)O[C@]1(C(=O)SCF)[C@H](C)C[C@H]2[C@@H]3C[C@H](F)C4=CC(=O)C=C[C@]4(C)[C@@]3(F)[C@@H](O)C[C@@]21C` [fluticasone, fluticasone propionate], the “fold more potent at inducing thymus involution compared to ciclesonide” value in data set [2] (setting [14]) is “sixfold”. In [3], this compound came in with an average adrenal involution of 16.6 ± 5.1%. The same compound yielded an average thymus involution in data set [4] of 59.5 ± 5.8%. Besides, the “fold lower level of plasma corticosterone than 100 μg ciclesonide” value in data set [12] is “approximately 10”. Also, in data set [13], the bioavailability (as a rule, dose-corrected exposure relative to a reference, in per cent) was below 1% and the clearance result is “~ liver blood flow”. The “effect on plasma corticosterone levels” value in data set [5] is listed as “significantly suppressed”. Further, in [6], the “particle size D50 of the bulk material” value amounted to 35 μm and the “particle size D50 after micronization” value was 0.24 μm. In addition, in data set [7], the “ED50, antigen-induced influx of eosinophils in airway BALF and lung tissue” value was 0.068 mg/kg; the “ED50 for the inhibition of eosinophil infiltration into BALF” value is recorded as 0.095 mg/kg. Besides, the plasma protein binding in data set [8] is given as 90%. In [9] (setting [14]), the “fold more potent at inducing adrenal involution compared to ciclesonide” value is reported as “approximately 44”. Moreover, in data set [10], the “ED50 based on neutrophil infiltration and cytokine production data” value amounted to 0.03 mg; the “ED50 in the LPS assay” value came out at 30 µg; the EDmax came to 0.1 mg; the “dose of maximum effect (EDmax)” value worked out at 100 µg.
